Test results as given in PubChem BioAssay (NCI).
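Step 1: Grow cells in 96-well plates. Step 2: Expose to compound for 48 hours at 5 concentrations. Step 3: Interpolate endpoints linearly; if unreached, use highest concentration. The concentration for 50% growth inhibition is given as GI50. TGI is the concentration that stops growth completely.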

System: OVCAR-3 ovarian
Test: DTP human tumour cell line panel, 48 h

Row | SMILES | TGI [µM] | GI50 [nM]
1 | O=P1(c2ccccc2)Nc2ccccc2SSc2ccccc2N1 | 28.3 | –
2 | COc1ccc(-c2nc3ncccn3c2-c2ccc(SC)cc2)cc1 | 2.09 | –
3 | C[C@H]1C(=O)O[C@@H]2CCN3CC=C(COC(=O)[C@](C)(O)[C@@]1(C)O)[C@H]23 | > 100 | –
4 | N=C1C(=N)c2ccccc2-c2ccccc21.N=C1C(=N)c2ccccc2-c2ccccc21.N=C1C(=N)c2ccccc2-c2ccccc21.[Cl-].[Ru+2] | 3.08 | –
5 | CCOC(=O)c1c2c(n(Cc3ccccc3)c1C)C(=O)C(=O)c1ccccc1-2 | 0.167 | –
6 | CN(C)C(=O)/C=C/c1c[nH]c(=O)[nH]c1=O | > 500 | –
7 | CN(C)CCCn1cnc2cc(Cl)c(Cl)cc21 | > 100 | –
8 | NCCCn1c2c(c3ccc([N+](=O)[O-])cc3c1=O)C(=O)c1ccccc1-2 | 0.525 | 96.6
9 | O=C1NI(C#Cc2ccccc2)c2ccccc21 | > 100 | –
10 | CCc1nc(N)nc(N)c1-c1ccc([N+](C)(C)C)cc1 | > 100 | –
11 | Cc1cc2c(cc1C(=O)c1ccc(N)cc1)OCO2 | 0.966 | –
12 | NCCc1cc(O)c(O)cc1O | 58.4 | –
13 | COc1ccc(C2=C3SC=c4ccccc4=C3ON=C2c2ccccc2)cc1 | > 100 | –
14 | CC(=O)NNc1nc(-c2ccc([N+](=O)[O-])cc2)c(C#N)c(=O)n1C | 31.4 | –
15 | COc1cc(C2CC(c3cccc(Nc4ccncc4)c3)=NN2c2ccc(Cl)cc2)cc(OC)c1OC (stereo not given) | 3.03 | 1610
16 | CCCOC(=O)CNC(=O)OC(C)(C)C | > 100 | –
17 | CN(C)CCNC(=O)c1cccc2ccc(-c3ccc(F)cc3)nc12 | 33.5 | –

System: PC-3 prostate
Test: DTP human tumour cell line panel, 48 h

Row | SMILES | TGI [µM] | GI50 [nM]
18 | COc1ccc(-c2nc3ncccn3c2-c2ccc(SC)cc2)cc1 | > 100 | –
19 | C[C@H]1C(=O)O[C@@H]2CCN3CC=C(COC(=O)[C@](C)(O)[C@@]1(C)O)[C@H]23 | > 100 | –
20 | CCOC(=O)c1c2c(n(Cc3ccccc3)c1C)C(=O)C(=O)c1ccccc1-2 | 5.14 | –
21 | CN(C)CCCn1cnc2cc(Cl)c(Cl)cc21 | > 100 | –
22 | NCCCn1c2c(c3ccc([N+](=O)[O-])cc3c1=O)C(=O)c1ccccc1-2 | 3.61 | 326
23 | O=C1NI(C#Cc2ccccc2)c2ccccc21 | 79.6 | –
24 | CCc1nc(N)nc(N)c1-c1ccc([N+](C)(C)C)cc1 | > 100 | –
25 | Cc1cc2c(cc1C(=O)c1ccc(N)cc1)OCO2 | > 100 | –
26 | NCCc1cc(O)c(O)cc1O | > 100 | –
27 | COc1ccc(C2=C3SC=c4ccccc4=C3ON=C2c2ccccc2)cc1 | > 100 | –
28 | CC(=O)NNc1nc(-c2ccc([N+](=O)[O-])cc2)c(C#N)c(=O)n1C | > 100 | –
29 | COc1cc(C2CC(c3cccc(Nc4ccncc4)c3)=NN2c2ccc(Cl)cc2)cc(OC)c1OC (stereo not given) | 3 | 1400

System: SK-MEL-2 melanoma
Test: DTP human tumour cell line panel, 48 h

Row | SMILES | TGI [µM] | GI50 [nM]
30 | Nc1n[nH]c(=O)c2c1c(I)cn2C1OC(CO)C(O)C1O (stereo not given) | 0.049 | –
31 | O=C(Nc1ccc([N+](=O)[O-])cc1[N+](=O)[O-])C(=O)C(C(=O)c1ccc2ccccc2c1)C1OC(=O)c2ccccc21 (stereo not given) | 43.4 | –
32 | COc1cc(/C=C/C(=O)Oc2ccc(NC(C)=O)cc2)ccc1C(=O)O/C=C/c1ccccc1 | > 100 | –
33 | COc1ccc2c(c1)CCCN2CCCCCCCCCCN(CCC(C)C)CCC(C)C | 22.8 | –
34 | O=P1(c2ccccc2)Nc2ccccc2SSc2ccccc2N1 | 32.2 | –
35 | COc1ccc(-c2nc3ncccn3c2-c2ccc(SC)cc2)cc1 | > 100 | –
36 | C[C@H]1C(=O)O[C@@H]2CCN3CC=C(COC(=O)[C@](C)(O)[C@@]1(C)O)[C@H]23 | > 100 | –
37 | CN(C)C(=O)/C=C/c1c[nH]c(=O)[nH]c1=O | > 500 | –
38 | CN(C)CCCn1cnc2cc(Cl)c(Cl)cc21 | > 100 | –
39 | NCCCn1c2c(c3ccc([N+](=O)[O-])cc3c1=O)C(=O)c1ccccc1-2 | > 50 | 1600
40 | O=C1NI(C#Cc2ccccc2)c2ccccc21 | > 100 | –
41 | CCc1nc(N)nc(N)c1-c1ccc([N+](C)(C)C)cc1 | > 100 | –
42 | Cc1cc2c(cc1C(=O)c1ccc(N)cc1)OCO2 | 74 | –
43 | NCCc1cc(O)c(O)cc1O | 71.7 | –
44 | COc1ccc(C2=C3SC=c4ccccc4=C3ON=C2c2ccccc2)cc1 | > 100 | –
45 | CC(=O)NNc1nc(-c2ccc([N+](=O)[O-])cc2)c(C#N)c(=O)n1C | > 100 | –
46 | COc1cc(C2CC(c3cccc(Nc4ccncc4)c3)=NN2c2ccc(Cl)cc2)cc(OC)c1OC (stereo not given) | 3.91 | 1890
47 | CCCOC(=O)CNC(=O)OC(C)(C)C | > 100 | –
48 | CN(C)CCNC(=O)c1cccc2ccc(-c3ccc(F)cc3)nc12 | 21.3 | –

System: UACC-257 melanoma
Test: DTP human tumour cell line panel, 48 h

Row | SMILES | TGI [µM] | GI50 [nM]
49 | Nc1n[nH]c(=O)c2c1c(I)cn2C1OC(CO)C(O)C1O (stereo not given) | 13.4 | –
50 | O=C(Nc1ccc([N+](=O)[O-])cc1[N+](=O)[O-])C(=O)C(C(=O)c1ccc2ccccc2c1)C1OC(=O)c2ccccc21 (stereo not given) | 58 | –
51 | COc1cc(/C=C/C(=O)Oc2ccc(NC(C)=O)cc2)ccc1C(=O)O/C=C/c1ccccc1 | > 100 | –
52 | COc1ccc2c(c1)CCCN2CCCCCCCCCCN(CCC(C)C)CCC(C)C | 32.5 | –
53 | O=P1(c2ccccc2)Nc2ccccc2SSc2ccccc2N1 | 30.3 | –
54 | COc1ccc(-c2nc3ncccn3c2-c2ccc(SC)cc2)cc1 | > 100 | –
55 | C[C@H]1C(=O)O[C@@H]2CCN3CC=C(COC(=O)[C@](C)(O)[C@@]1(C)O)[C@H]23 | > 100 | –
56 | N=C1C(=N)c2ccccc2-c2ccccc21.N=C1C(=N)c2ccccc2-c2ccccc21.N=C1C(=N)c2ccccc2-c2ccccc21.[Cl-].[Ru+2] | 3.53 | –
57 | CCOC(=O)c1c2c(n(Cc3ccccc3)c1C)C(=O)C(=O)c1ccccc1-2 | 0.285 | –
58 | CN(C)C(=O)/C=C/c1c[nH]c(=O)[nH]c1=O | > 500 | –
59 | CN(C)CCCn1cnc2cc(Cl)c(Cl)cc21 | 40.7 | –
60 | NCCCn1c2c(c3ccc([N+](=O)[O-])cc3c1=O)C(=O)c1ccccc1-2 | > 16.6 | 495
61 | O=C1NI(C#Cc2ccccc2)c2ccccc21 | > 100 | –
62 | CCc1nc(N)nc(N)c1-c1ccc([N+](C)(C)C)cc1 | > 100 | –
63 | Cc1cc2c(cc1C(=O)c1ccc(N)cc1)OCO2 | > 100 | –
64 | NCCc1cc(O)c(O)cc1O | 62.1 | –
65 | COc1ccc(C2=C3SC=c4ccccc4=C3ON=C2c2ccccc2)cc1 | > 100 | –
66 | CC(=O)NNc1nc(-c2ccc([N+](=O)[O-])cc2)c(C#N)c(=O)n1C | > 100 | –
67 | COc1cc(C2CC(c3cccc(Nc4ccncc4)c3)=NN2c2ccc(Cl)cc2)cc(OC)c1OC (stereo not given) | 3.84 | 1960
68 | CCCOC(=O)CNC(=O)OC(C)(C)C | > 100 | –
69 | CN(C)CCNC(=O)c1cccc2ccc(-c3ccc(F)cc3)nc12 | 17.9 | –

System: UACC-62 melanoma
Test: DTP human tumour cell line panel, 48 h

Row | SMILES | TGI [µM] | GI50 [nM]
70 | Nc1n[nH]c(=O)c2c1c(I)cn2C1OC(CO)C(O)C1O (stereo not given) | 13.3 | –
71 | O=C(Nc1ccc([N+](=O)[O-])cc1[N+](=O)[O-])C(=O)C(C(=O)c1ccc2ccccc2c1)C1OC(=O)c2ccccc21 (stereo not given) | 30.2 | –
72 | COc1cc(/C=C/C(=O)Oc2ccc(NC(C)=O)cc2)ccc1C(=O)O/C=C/c1ccccc1 | > 100 | –
73 | COc1ccc2c(c1)CCCN2CCCCCCCCCCN(CCC(C)C)CCC(C)C | 27.1 | –
74 | O=P1(c2ccccc2)Nc2ccccc2SSc2ccccc2N1 | 29.8 | –
75 | COc1ccc(-c2nc3ncccn3c2-c2ccc(SC)cc2)cc1 | 13 | –
76 | C[C@H]1C(=O)O[C@@H]2CCN3CC=C(COC(=O)[C@](C)(O)[C@@]1(C)O)[C@H]23 | > 100 | –
77 | N=C1C(=N)c2ccccc2-c2ccccc21.N=C1C(=N)c2ccccc2-c2ccccc21.N=C1C(=N)c2ccccc2-c2ccccc21.[Cl-].[Ru+2] | 3.5 | –
78 | CCOC(=O)c1c2c(n(Cc3ccccc3)c1C)C(=O)C(=O)c1ccccc1-2 | 1.65 | –
79 | CN(C)C(=O)/C=C/c1c[nH]c(=O)[nH]c1=O | > 500 | –
80 | CN(C)CCCn1cnc2cc(Cl)c(Cl)cc21 | 82.2 | –
81 | NCCCn1c2c(c3ccc([N+](=O)[O-])cc3c1=O)C(=O)c1ccccc1-2 | 0.431 | 102
82 | O=C1NI(C#Cc2ccccc2)c2ccccc21 | > 100 | –
83 | CCc1nc(N)nc(N)c1-c1ccc([N+](C)(C)C)cc1 | > 100 | –
84 | Cc1cc2c(cc1C(=O)c1ccc(N)cc1)OCO2 | > 100 | –
85 | NCCc1cc(O)c(O)cc1O | 74.9 | –
86 | COc1ccc(C2=C3SC=c4ccccc4=C3ON=C2c2ccccc2)cc1 | > 100 | –
87 | CC(=O)NNc1nc(-c2ccc([N+](=O)[O-])cc2)c(C#N)c(=O)n1C | > 100 | –
88 | COc1cc(C2CC(c3cccc(Nc4ccncc4)c3)=NN2c2ccc(Cl)cc2)cc(OC)c1OC (stereo not given) | 3.14 | 1690
89 | CCCOC(=O)CNC(=O)OC(C)(C)C | > 100 | –
90 | CN(C)CCNC(=O)c1cccc2ccc(-c3ccc(F)cc3)nc12 | 13.4 | –
